Article PMC10093438, “α-Mangostin Promotes In Vitro and In Vivo Degradation of Androgen Receptor and AR-V7 Splice Variant in Prostate Cancer Cells” (Cancers, 2023)

Target: T1, BiP (GRP78) (Homo sapiens, UniProt P11021)
T1 construct: gene HSPA5; recombinant His-GST-BiP (BiP-N-His-GST), expressed in E. coli
Test: SPR (Biacore T200, His-capture plus amine coupling on NTA chip)
Type: binding

T1 sequence (P11021 19-654): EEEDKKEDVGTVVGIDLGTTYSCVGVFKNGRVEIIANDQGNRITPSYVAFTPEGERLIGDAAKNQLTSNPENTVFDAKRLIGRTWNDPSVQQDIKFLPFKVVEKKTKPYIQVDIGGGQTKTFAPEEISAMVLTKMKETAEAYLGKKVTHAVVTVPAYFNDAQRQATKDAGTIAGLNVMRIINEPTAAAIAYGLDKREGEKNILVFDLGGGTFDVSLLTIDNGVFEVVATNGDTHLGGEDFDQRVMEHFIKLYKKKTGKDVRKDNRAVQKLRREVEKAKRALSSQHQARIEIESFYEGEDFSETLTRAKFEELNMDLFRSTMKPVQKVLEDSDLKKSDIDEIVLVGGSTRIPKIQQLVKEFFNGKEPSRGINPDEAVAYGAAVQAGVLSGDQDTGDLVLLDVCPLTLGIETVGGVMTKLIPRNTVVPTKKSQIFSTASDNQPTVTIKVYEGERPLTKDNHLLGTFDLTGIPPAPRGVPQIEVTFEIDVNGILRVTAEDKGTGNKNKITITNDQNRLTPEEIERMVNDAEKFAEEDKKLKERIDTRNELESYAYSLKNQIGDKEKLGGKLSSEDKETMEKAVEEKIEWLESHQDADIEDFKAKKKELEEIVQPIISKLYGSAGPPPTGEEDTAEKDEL

COc1c(O)cc2oc3cc(O)c(CC=C(C)C)c(O)c3c(=O)c2c1CC=C(C)C [α-Mangostin]
Kd: 21.7 µM
